16 compounds from PubChem BioAssay (NCI) can be followed below.

Common to all, as to test: NCI anticancer screen, dose series, 48 h
Experiment [1] deals with COLO 205 colon.
Experiment [2] deals with LXFL 529 NSCLC.
For experiment [3], the system named is DMS 273 small cell lung.
Experiment [4] has as its system SNB-78 CNS.
The test system of experiment [5] is M19-MEL melanoma.
In experiment [6] the test system is U251 CNS.
Experiment [7] has as its system KM20L2 colon.
Experiment [8] deals with XF 498 CNS.
Experiment [9] deals with DMS 114 small cell lung.
In experiment [10] the test system is DLD-1 colon.
Experiment [11] has as its system HOP-18 NSCLC.
Experiment [12] concerns MDA-MB-435.
Experiment [13] relates to PC-3 prostate.
In experiment [14] the test system is HS 578T breast.

SMILES strings stand for the structures.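 In this assay, cells in 96-well plates receive the compound at five concentrations for 48 hours. Endpoints are linearly interpolated between the surrounding concentrations. TGI: total growth inhibition.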

For the compound `CC(C)NCCNC(=O)c1ccccc1Nc1c(Cl)cccc1Cl`, the TGI was 24.9 µM in [1]; 31.5 µM in experiment [2]; 26.6 µM in experiment [3]; 31.5 µM in experiment [4]; 20.8 µM in experiment [5]; 16.8 µM in experiment [6]. In addition, the TGI amounted to 5.78 µM in experiment [7], 11.4 µM in experiment [8], 23.4 µM in experiment [9] and 25.7 µM in experiment [10].
Turning to `N#CC(NNC(=O)c1ccccc1O)c1ccc(O)cc1` (configuration not stated), the TGI in experiment [1], in experiment [2], in experiment [3], in [5], in experiment [6] and in [7] was greater than 100 µM in each case. Moreover, the TGI is 8.62 µM in experiment [9] and greater than 100 µM in experiment [11].
With `O=P1(N(CCCl)CCCl)NCCCO1` (configuration not stated), the TGI in [1] was greater than 250 µM; in experiment [2] it was greater than 250 µM; in experiment [3], greater than 250 µM; in experiment [4], greater than 216 µM; in experiment [5], greater than 250 µM; in experiment [6], greater than 250 µM. The TGI was greater than 250 µM in experiment [7]; greater than 250 µM in [12]; 180 µM in [8]; greater than 250 µM in experiment [9]; greater than 250 µM in experiment [13]; 150 µM in [11]. Moreover, the TGI in experiment [10] and in [14] was greater than 250 µM in each case.
Regarding `COc1ccccc1NC(=O)CSC(N)=O`, the TGI was greater than 100 µM in experiment [1]; greater than 100 µM in experiment [3]; greater than 100 µM in [4]; greater than 100 µM in [5]; 66.2 µM in [6]; greater than 100 µM in experiment [7]. The TGI in experiment [8] was 83.6 µM; in [9], greater than 100 µM; in experiment [11], greater than 100 µM; in [10], greater than 100 µM.
`Cc1ccc(Cl)c2c(=O)cc(-c3ccccc3)[nH]c12`: the TGI in experiment [1], in [2], in experiment [3], in [5], in experiment [6] and in experiment [11] was greater than 100 µM each time. The TGI in experiment [10] is greater than 100 µM.
With `CCOC(=O)c1nc2ccccc2nc1Nc1ccc(F)cc1`, the TGI in [1] was greater than 100 µM; in experiment [6], 70.6 µM; in [12] it was greater than 100 µM; in experiment [13], greater than 100 µM; in experiment [14], greater than 84.8 µM.
Turning to `C/C=C\C(CC(=O)NCCc1c[nH]c2ccccc12)CC(=O)OC` (configuration not stated), the TGI in experiment [1], in experiment [6], in experiment [12], in experiment [13] and in experiment [14] was greater than 100 µM throughout.
On to `OCC1c2ccccc2-n2nc(-c3ccccc3)c(O)c21` (configuration not stated), for which the TGI is 26.5 µM in [1]; 52.8 µM in [6]; 92.2 µM in experiment [12]; 34.3 µM in experiment [13]; greater than 100 µM in [14].
In the case of `CCn1c(O)c(C(=O)NC(C)c2ccc([N+](=O)[O-])cc2)c(=O)n(CC)c1=S` (configuration not stated), the TGI in experiment [1] amounted to 3.29 µM; in [6], 13.1 µM; in experiment [12] it was 13.6 µM; in experiment [13], 10.2 µM; in experiment [14] it was 7.42 µM.
Take `CN(c1ccc(Cl)cc1)S(=O)(=O)c1ccccc1`: the TGI in experiment [1], in experiment [6], in experiment [12], in [13] and in [14] was greater than 100 µM throughout.
Turning to `C=C1CC(Cn2cc(Br)c(=O)[nH]c2=O)(c2ccc(Br)cc2)OC1=O` (configuration not stated), the TGI in experiment [1] is 3.18 µM; in [6], 28.8 µM; in [12], 10.4 µM; in [13] it was 12.8 µM; in experiment [14], greater than 32.4 µM.
Take `O=C1NC(=S)N/C1=C\c1ccc(Sc2ccccc2C(=O)O)s1`: the TGI in experiment [1], in [6], in [12], in [13] and in [14] was greater than 100 µM each time.
Take `O=c1oc2ccccc2c(O)c1C(c1ccc(O)cc1)c1c(O)c2ccccc2oc1=O`: the TGI in experiment [1], in experiment [6], in experiment [12], in experiment [13] and in experiment [14] was greater than 100 µM each time.
As to `Cn1c(O)c(/C=N/c2ncccn2)c(=O)[nH]c1=O`, the TGI in [1], in experiment [6], in [12], in experiment [13] and in experiment [14] was greater than 100 µM in each case.
On to `Cn1c(=O)[nH]n(-c2ccc3ccccc3c2)c1=O`, for which the TGI in [1], in experiment [6], in experiment [12], in [13] and in [14] was greater than 100 µM in each case.
In the case of `CCOC(=O)/C(C1=N[C@H](C(=O)OCC)CS1)=C(\O)c1ccccc1`, the TGI in [1], in [2], in experiment [4], in [6], in experiment [7] and in [8] was greater than 100 µM throughout. Moreover, the TGI in [11] and in experiment [10] was greater than 100 µM each time.
